Experimental data reported in paper PMC2904697, “A Screen for Kinetochore-Microtubule Interaction Inhibitors Identifies Novel Antitubulin Compounds” (PLoS ONE, 2010).
“And” between values parts separate entries of the source, which are not always exact repeats. Equal values may be shown once.

Legend:
[1] = biological target: recombinant human Ndc80 kinetochore complex binding to taxol-stabilized microtubules; experiment: Ndc80^488 complex-MT binding assay (fluorescence microscopy / TIRF); conditions: for IC50: total internal reflection fluorescence microscopy, Ndc80^488 complex 0.1 µmol/l, taxol-stabilized MTs; for Effect on binding of the Ndc80^488 complex to taxol-stabilized MTs: compound 50 µmol/l, wide-field fluorescence microscopy
Description: To screen compound libraries for molecules inhibiting binding of the outer kinetochore Ndc80 complex (Ndc80, Nuf2, Spc24, Spc25) to MTs, we used a fluorescence microscopy-based in vitro approach (Fig. 1). First, the recombinant human Ndc80 construct, used to crystallize the complex, was produced in Escherichia coli using a bicistronic plasmid from which the Nuf2-Spc24 and Ndc80-Spc25 peptides were generated (Fig. 1A). Following their intracellular assembly, the complex was purified from E. coli cell extract based on the GST tag at the N-terminus of Nuf2. The complex was released in solution with PreScission Protease (its recognition sequence was introduced between the GST tag and the NUF2 coding sequence) and was separated from contaminants by gel filtration chromatography (Fig. 1A). The high degree of purity of the preparation was confirmed by SDS-PAGE analysis and coomassie staining, which identified only both peptides (Fig. 1B). Next, the Ndc80 complex was fluorescently labeled with the Alexa Fluor 488 C5-maleimide (next named the Ndc80^488 complex) and was separated from unreacted fluorophore by gel filtration chromatography. The final preparation was highly pure as evidenced by gel filtration analysis and detection at 519 nm (emission maximum of the Alexa Fluor 488 dye) and at 280 nm (intrinsic protein fluorescence) (Fig. 1B). Next, the Ndc80^488 complex (0.1 µmol/l) was incubated with 10,200 compounds (comprising the Chembridge DIVERset and a compound collection from the Univ. Rome) at a starting concentration of 50 µmol/l. Binding (or lack thereof) of the complex to rhodamine-labeled taxol-stabilized MTs (0.1 µmol/l) was scored by wide-field fluorescence microscopy (Fig. 1C; images in Fig. 2A). […] Total internal reflection fluorescence microscopy was used to establish the IC50 value of the compound, which was measured to be ∼20 µmol/l (Fig. 2C).
Recombinant human Ndc80 complex (Ndc80^Bonsai complex) was produced in Escherichia coli using a bicistronic expression plasmid (Fig. 1A, [12]). Following transcription from the TAC promoter/operator by induction with 0.4 mmol/l IPTG (20°C, 15 h), GST-Nuf2-Spc24 and Ndc80-Spc25 polypeptides were generated, which dimerized intracellulary into the GST-Ndc80 complex. The complex was isolated from E. coli cell extract following incubation with glutathione beads. The complex was released from the beads with PreScission Protease (GE Healthcare Life Sciences) and contaminants were removed by gel filtration chromatography (Superdex 200, GE Healthcare Life Sciences). On average 4 mg of Ndc80 complex were obtained from 1 liter of cell culture. Next, 1 mg Ndc80 complex was labeled with 0.1 mg Alexa Fluor 488 C5-maleimide fluorophore (Invitrogen) at a 1.5-2 stoichiometry. The fluorescent complex (Ndc80^488 complex) was separated from unreacted fluorophore by gel filtration chromatography (Fig. 1B) and was then used to screen for compounds inhibiting Ndc80^488 complex-MT binding (Fig. 1C). The Ndc80^488 complex is fully functional as it is recruited to and acts at kinetochores when injected into prometaphase HeLa cells.
MTs were polymerized (30 min, 37°C) from a 1∶10 mixture of rhodamine-labeled:unlabeled bovine brain αβ-tubulin (Cytoskeleton) in BRB-80 buffer (80 mmol/l PIPES pH 6.8, 1 mmol/l MgCl2, 1 mmol/l EGTA) and were then stabilized with 20 µmol/l taxol. The Ndc80^488 complex (0.1 µmol/l) was incubated with 100 µmol/l compound (30 min, 24°C) in 96-well polypropylene plates (Eppendorf). The 10,000 compound DIVERset library (Chembridge) and 200 compounds from the Department of Medicinal Chemistry and Technologies, University of Rome La Sapienza were used in the screen. Next, the MTs (100 nmol/l) were added to the compound-Ndc80^488 complex solution in a 1∶1 v/v ratio. After incubation (10 min, 24°C), the reaction mixtures were transferred to 96-well glass-bottom plates (Greiner Bio-one). […]

[2] = test system: MTs assembled from αβ-tubulin; experiment: Depolymerization of non-stabilized MTs in vitro (turbidity at 350 nm); assay type: biochemical; conditions: for Fold difference between concentration inhibiting tubulin polymerization and that needed to disassemble MTs: Fig. 5B versus Fig. 5A
Method: To quantify the antitubulin activity of compound B, we added 1–50 µmol/l compound B to 10 µmol/l αβ-tubulin. […] For this purpose, MTs were assembled from 10 µmol/l αβ-tubulin; 5 min into the reaction compound B was added in concentrations up to 200 µmol/l. MT depolymerization was tracked as a decrease in turbidity at 350 nm (Fig. 5B).
Polymerization of 10 µmol/l αβ-tubulin in BRB-80 buffer was monitored turbidimetrically at 350 nm for 15 min in a temperature-controlled spectrophotometer (37°C; SpectraMax Plus^384, Molecular Devices). To probe the effect of a compound on MT stability the molecule was added 5 min after initiation of tubulin assembly. The decrease in protein turbidity (350 nm) resulting from MT depolymerization was followed for 15 min at 37°C [13]. Quantitative comparisons of drug effects on tubulin assembly were also examined in 0.8 M glutamate with a 15 min drug-tubulin preincubation prior to the addition of GTP [14]. Tubulin assembly was monitored for 20 min at 30°C in Beckman DU7400/7500 spectrophotometers, and the compound concentration inhibiting tubulin assembly by 50% was determined.

IC50 [1]	Fold more active than compound B in the Ndc80^488 complex-MT binding assay ([1]; versus compound B)	SMILES	Ability to depolymerize MTs, fold higher than that of compound B ([2]; non-stabilized MTs in vitro)	Ability to depolymerize MTs, higher than that of nocodazole ([2]; non-stabilized MTs in vitro)	Effect on binding of the Ndc80^488 complex to taxol-stabilized MTs [1]	Fold difference between concentration inhibiting tubulin polymerization and that needed to disassemble MTs [2]	Drug:tubulin molar ratio at which MT stability is affected / MT depolymerization induced ([2]; MTs from 10 µmol/l αβ-tubulin, compound added 5 min into the reaction)
~1 µM and 1 µM	~20 fold	CCSCCOC(=O)c1[nH]c2c(c1C)C(=O)C[C@@H](c1ccco1)C2 [A8]	12 fold	10%	–	–	–
~20 µM and 20 µM	–	Cc1c(C(=O)OCC2CCCO2)[nH]c2c1C(=O)CC(c1ccco1)C2 (stereo not shown) [compound B, 6-furan-2-yl-3-methyl-4-oxo-4,5,6,7,-tetrahydro-1H-indole-2-carboxylic acid tetrahydro-furan-2-ylmethyl ester]	–	–	active	at least 40 fold	–
–	–	COC(=O)Nc1nc2ccc(C(=O)c3cccs3)cc2[nH]1 [nocodazole, reference compound]	–	–	did not prevent	10 fold	1
